According to PubChem BioAssay (NCI):
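Grown in 96-well plates, cells were treated for 48 hours with each compound at five concentrations. Insufficient inhibition: endpoint recorded as highest concentration tested. GI50 = concentration required for 50% inhibition of growth. TGI: concentration producing complete growth inhibition.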

Tests used:
Test in all cases: NCI anticancer screen, dose series, 48 h
[1] = system: UACC-257 melanoma
[2] = system: SR leukemia
[3] = system: UACC-62 melanoma
[4] = system: SK-MEL-5 melanoma
[5] = system: SK-OV-3 ovarian
[6] = system: ACHN renal
[7] = system: NCI-H226 lung
[8] = system: A498 renal
[9] = system: OVCAR-3 ovarian
[10] = system: RPMI-8226 leukemia

Row | Compound | TGI [1] [µM] | TGI [2] [µM] | TGI [3] [µM] | TGI [4] [µM] | TGI [5] [µM] | TGI [6] [µM] | TGI [7] [µM] | TGI [8] [µM] | TGI [9] [µM] | TGI [10] [µM] | GI50 [1] [µM] | GI50 [2] [µM] | GI50 [3] [µM] | GI50 [4] [µM] | GI50 [5] [µM] | GI50 [6] [µM] | GI50 [7] [µM] | GI50 [8] [µM] | GI50 [9] [µM] | GI50 [10] [µM]
1 | Cc1ccc(NC(=O)NC(=O)c2ccc([N+](=O)[O-])cc2[N+](=O)[O-])cc1Oc1ncc(Cl)cn1 | 16.9 | 16.9 | 21 | 0.819 | 25.7 | > 100 | 2.53 | 22.2 | 13.6 | 3.08 | – | – | – | – | – | – | – | – | – | –
2 | ClC1=C(Cl)C(Cl)=C(Cl)C1=C/C=C/c1ccccc1 | 0.41 | – | 0.467 | 0.563 | > 27.5 | 0.855 | 0.653 | 1.22 | 0.532 | 0.275 | 0.184 | 0.138 | 0.191 | 0.196 | 2.44 | 0.318 | 0.236 | 0.59 | 0.239 | < 0.0374
3 | NC(CSC(c1ccccc1)(c1ccccc1)c1ccc(Cl)cc1)C(=O)O (configuration not stated) | > 78.7 | 5.93 | 21.6 | 14.1 | 21.7 | > 78.4 | 49 | 48.8 | 3.37 | 21.5 | 3.87 | 0.121 | 0.18 | 0.0612 | 0.158 | 2.6 | 5.11 | 0.746 | 0.255 | 0.143
4 | COc1cccc(C2C(C#N)=C(N)Oc3cc(N)ccc32)c1 (configuration not stated) | > 100 | > 100 | > 100 | > 61.8 | 3.5 | > 100 | > 100 | – | 1.03 | > 69 | 0.319 | 0.3 | 0.368 | 0.396 | 0.4 | 0.762 | 5.52 | 0.203 | 0.337 | 0.412
5 | C[C@]12CCC[C@H](Cl)C1(O)C[C@H](C(=O)O)CC2 (some centres not stated) | > 100 | > 100 | > 100 | > 100 | > 100 | > 100 | > 100 | > 100 | > 100 | > 100 | – | – | – | – | – | – | – | – | – | –
6 | CN(C)c1ccc(/C=C(/NC(=O)c2ccccc2)c2nc3ccc(Cl)cc3[nH]2)cc1 | > 86.5 | > 89.4 | 97.6 | 39.3 | > 100 | > 100 | > 85.1 | > 100 | > 9.31 | > 82.2 | – | – | – | – | – | – | – | – | – | –
7 | CC(C)C1OC(=O)C=C1Sc1ccccc1 (configuration not stated) | > 100 | > 100 | > 100 | > 100 | > 100 | > 100 | > 100 | > 100 | > 100 | > 100 | – | – | – | – | – | – | – | – | – | –
8 | COc1ccc(/C(Cl)=C(\C=O)c2ccc([N+](=O)[O-])cc2)cc1OC | 29.7 | 83.3 | 16.2 | 23 | 60 | 25 | > 54.8 | > 54.4 | 38 | > 25.8 | – | – | – | – | – | – | – | – | – | –
9 | CCOC(=O)c1sc2nc3sc(N=Nc4ccc(Cl)cc4)c(O)n3c(=S)c2c1C | 60.6 | > 100 | 32.5 | 35.8 | > 100 | 54.3 | 21.6 | 62.5 | > 100 | > 100 | 23.4 | > 100 | 13 | 17.1 | 31 | 16.5 | – | 24.1 | 36.7 | 21.4
10 | Cc1ccc(-c2nc(SCC(=O)O)n[nH]2)cc1 | > 100 | > 100 | > 100 | > 100 | > 100 | > 100 | > 100 | > 100 | > 100 | > 100 | – | – | – | – | – | – | – | – | – | –
11 | CN(C)c1ccc(N=Cc2c([O-])ccc3ccccc23)cc1.[C-]#[O+].[C-]#[O+].[Ir] | 37.1 | 44.1 | 35.9 | 31.2 | > 100 | 43.7 | 33.1 | 51.5 | 32.4 | > 100 | 16.3 | 15.4 | 17.2 | 16.4 | 34.4 | 18.8 | 15.2 | 22.1 | 16.6 | 23.2
